From patent US20110009435A1, “HETERO BICYCLIC CARBOXAMIDE DERIVATIVES AND THEIR PHARMACEUTICAL USE AND COMPOSITIONS” (Pfizer, Inc., priority 2007, published 2011) come the findings set out here.

Holding throughout (assay type): biochemical
The target in assay [1] is T1, catalytic domain of human recombinant MMP-3 (Homo sapiens, UniProt P08254).
T1 construct: made in house
Kind of assay: In vitro MMP inhibition assay, MMP-3 catalytic domain (fluorogenic peptide substrate cleavage, Ki). Conditions: human MMP-3, catalytic domain (CD); read-out: hMMP Ki 03/CD. As for the experimental part: (§1) Matrix Metalloproteinase inhibitor compounds were analyzed in in vitro MMP Inhibition assays to determine their ability to inhibit the MMP cleavage of peptide substrates. Inhibition constants (Ki) were calculated from the assayed compound-MMP interactions.
(§2) Human recombinant MMP-1, MMP-2, MMP-3, MMP-7, MMP-9, MMP-12, MMP-13, MMP-14 and MMP-15 were used in these assays. The enzymes are prepared following known laboratory procedures. Protocols for the preparation and use of these enzymes are available in the scientific literature. See, e.g., Enzyme Nomenclature (Academic Press, San Diego, Calif., 1992) and the citations therein. See also Frije et al., J. Biol. Chem., 26(24), 16766-73 (1994).
The catalytic domain MMP-3 cDNA may be used to express the catalytic domain enzyme in E. coli inclusion bodies. Then the enzyme is solubilized in urea, purified on a preparative […] reverse phase HPLC column, and refolded in the presence of zinc acetate and purified for use.
The fluorogenic, methoxycoumarin-containing polypeptide substrate Mca-Arg-Pro-Lys-Pro-Val-Glu-Nva-Trp-Arg-Lys(Dnp)-NH2 (Bachem catalog number M-2110) was used as the MMP substrate in the MMP inhibition assays for catalytic domain of human recombinant MMP-3 (which refers to the catalytic domain of stromelysin). Here, “MCA” is 7-methoxycoumarin-4-yl acetyl and “Dpa” is 3-(2,4-dinitrophenyl)-L-2,3-di-aminopropionyl group. In the absence of MMP inhibitory activity, the substrate is cleaved at the Gly-Leu peptide bond. The cleavage separates the highly fluorogenic peptide from the 2,4-dinitrophenyl quencher, resulting in an increase of fluorescent intensity.
For the human MMP-3 assay, dilutions of the inhibitors (or salts thereof) were prepared in 100% DMSO. The stock solutions were diluted in Buffer B (50 mM N-morpholinoethane sulfonate (“MES”), 100 mM NaCl, 10 mM CaCl2, 0.005% polyoxyethylene 23 lauryl ether, pH 6.0)) to obtain solutions with different compound concentrations, i.e., assay solutions with different concentrations of the assayed MMP inhibitory compound in 1% DMSO. The experiment controls contained the same amount of Buffer B/DMSO as the assayed sample, but contained no inhibitor.
(§3) To determine Ki, the inhibitor samples are incubated at room temperature for 1 hr in the presence of enzyme and then 4 μM of appropriate MMP substrate was added, and samples were analyzed on a Tecan SpectraFlour Plus plate reader. The excitation wavelength is 330 nm, and the emission (fluorescence) wavelength is 420 nm. In the absence of MMP inhibitory activity, the substrate is cleaved at the Gly-Leu bond resulting in an increase of relative fluorescence. Inhibition is observed as a reduced rate of increase in relative fluorescence.
(§4) The inhibitors are analyzed using a single low enzyme concentration with a single substrate concentration fixed at or below the Km. This protocol is a modification of method by Knight et al., FEBS Lett., 296(3), 263-266 (1992). Apparent inhibitory constants are determined by non-linear regression of reaction velocity as a function of inhibitor and enzyme concentration using Morrison's equation, as described by Kuzmic, Anal. Biochem. 286, 45-50 (2000). Modifications were made in the non-linear regression method to allow a common control reaction rate and effective enzyme concentration to be shared between all dose-response relationships on a given assay plate. Since the substrate concentration was chosen to be at or below the Km, the apparent Ki's from this analysis were reported as Ki's without correction for the influence of substrate.

A further assay addresses T2, Human recombinant MMP-12 (Homo sapiens, UniProt P39900).
T2 construct: The catalytic domain of MMP-12 and MMP-15 enzymes were purchased commercially for these assays; purchased
Kind of assay: In vitro MMP inhibition assay, MMP-12 catalytic domain (fluorogenic peptide substrate cleavage, Ki). To be noted: human MMP-12, catalytic domain (CD); read-out: hMMP Ki 12/CD. The procedure: as §1, §2
(§5) The catalytic domain of MMP-12 and MMP-15 enzymes were purchased commercially for these assays.
(§6) The fluorogenic, methoxycoumarin-containing polypeptide substrate MCA-ArgProLeuGlyLeuDpaAlaArgGluArgNH2 was used as the MMP substrate in the MMP inhibition assays for human recombinant MMP-1, MMP-2, MMP-7, MMP-9, MMP-12, MMP-13, MMP-14 and MMP-15. Here, “MCA” is 7-methoxycoumarin-4-yl acetyl and “Dpa” is 3-(2,4-dinitrophenyl)-L-2,3-di-aminopropionyl group. In the absence of MMP inhibitory activity, the substrate is cleaved at the Gly-Leu peptide bond. The cleavage separates the highly fluorogenic peptide from the 2,4-dinitrophenyl quencher, resulting in an increase of fluorescent intensity.
(§7) For the human MMP-1, MMP-2, MMP-7, MMP-9, MMP-12, MMP-13, MMP-14 and MMP-15 assays, dilutions of the inhibitors (or salts thereof) were prepared in 100% dimethyl sulfoxide (DMSO). The stock solutions were diluted in Buffer A (100 mM Tris-HCl, 100 mM NaCl, 10 mM CaCl2, 0.005% polyoxyethylene 23 lauryl ether, pH 7.5) to obtain solutions with different compound concentrations, i.e., assay solutions with different concentrations of the assayed MMP inhibitory compound in 1% DMSO. The experiment controls contained the same amount of Buffer A/DMSO as the assayed sample, but contained no inhibitor.
as §3, §4

Another assay has as its target T3, Human recombinant MMP-13 (Homo sapiens, UniProt P45452).
T3 construct: made in house; host or cells: baculovirus expression (insect cells)
Kind of assay: In vitro MMP inhibition assay, MMP-13 (fluorogenic peptide substrate cleavage, Ki). Conditions: human MMP-13, full length (FL); read-out: hMMP Ki 13/FL. As for the experimental part:
as §1, §2
The MMP-13 may be obtained as a proenzyme from a full-length cDNA clone using baculovirus expression, as described by V. A. Luckow, “Insect Cell Expression Technology,” Protein Engineering: Principles and Practice, pp. 183-218 (edited by J. L. Cleland et al., Wiley-Liss, Inc., 1996). The expressed proenzyme was first purified over a heparin agarose column, and then over a chelating zinc chloride column. Further details on baculovirus expression systems may be found in, for example, Luckow et al., J. Virol., 67, 4566-79 (1993). See also O'Reilly et al, Baculovirus Expression Vectors: A Laboratory Manual (W. H. Freeman and Co., New York, N.Y., 1992). See also King et al., The Baculovirus Expression System: A Laboratory Guide (Chapman & Hall, London, England, 1992).
All full length MMPs were activated using 4-aminophenylmercuric acetate (“APMA”, Sigma Chemical, St. Louis, Mo.) or trypsin. MMP-9 also was activated using human recombinant MMP-3 following standard cloning and purification techniques.
as §6, §7, §3
The inhibitors are analyzed using a single low enzyme concentration with a single substrate concentration fixed at or below the Km. This protocol is a modification of method by Knight et al., FEBS Lett., 296(3), 263-266 (1992). Apparent inhibitory constants are determined by non-linear regression of reaction velocity as a function of inhibitor and enzyme concentration using Morrison's equation, as described by Kuzmic, Anal. Biochem. 286, 45-50 (2000). […]

Another assay concerns the target T4, Human recombinant MMP-14 (Homo sapiens, UniProt P50281).
T4 construct: The MMP-14 cDNA may be used to express the catalytic domain enzyme in E. coli inclusion bodies; made in house
Kind of assay: In vitro MMP inhibition assay, MMP-14 catalytic domain (fluorogenic peptide substrate cleavage, Ki). To be noted: human MMP-14, catalytic domain (CD); read-out: hMMP Ki 14/CD. The procedure:
as §1, §2
The MMP-14 cDNA may be used to express the catalytic domain enzyme in E. coli inclusion bodies. Then the enzyme is solubilized in urea, purified on a preparative […] reverse phase HPLC column, and refolded in the presence of zinc acetate and purified for use.
as §6, §7, §3
as §4, with “Since the substrate concentration was chosen to be at or below the Km, the apparent Ki's from this analysis were reported as Ki's without correction for the influence of substrate.” left out

The target in the next assay is T5, Human recombinant MMP-15 (Homo sapiens, UniProt P51511).
T5 construct: The catalytic domain of MMP-12 and MMP-15 enzymes were purchased commercially for these assays; purchased
Kind of assay: In vitro MMP inhibition assay, MMP-15 catalytic domain (fluorogenic peptide substrate cleavage, Ki). Conditions: human MMP-15, catalytic domain (CD); read-out: hMMP Ki 15/CD. The procedure: as §1, §2, §5, §6, §7, §3, §4

T1 sequence (P08254 100-272 limits assumed): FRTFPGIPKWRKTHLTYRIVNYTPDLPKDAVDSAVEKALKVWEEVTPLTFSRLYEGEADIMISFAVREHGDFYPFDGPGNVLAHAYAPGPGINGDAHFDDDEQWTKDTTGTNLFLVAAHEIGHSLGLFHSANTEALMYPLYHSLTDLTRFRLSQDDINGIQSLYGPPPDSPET
T5 sequence (P51511 132-304 limits assumed): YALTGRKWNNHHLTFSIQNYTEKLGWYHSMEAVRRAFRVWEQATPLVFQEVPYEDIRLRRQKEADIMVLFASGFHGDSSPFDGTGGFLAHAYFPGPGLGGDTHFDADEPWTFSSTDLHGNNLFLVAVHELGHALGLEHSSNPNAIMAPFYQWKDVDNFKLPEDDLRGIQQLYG
T2 sequence (P39900 106-263 limits assumed): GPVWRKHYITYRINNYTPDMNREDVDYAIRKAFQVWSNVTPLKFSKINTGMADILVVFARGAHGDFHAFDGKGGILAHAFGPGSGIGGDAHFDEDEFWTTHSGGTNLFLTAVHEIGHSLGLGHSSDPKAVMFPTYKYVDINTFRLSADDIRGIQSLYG

`COc1cc(CNC(=O)c2nc3scc(COC[C@H]4CC[C@H](NS(C)(=O)=O)CC4)c3c(=O)[nH]2)ccc1F` [Example 18, N-(4-Fluoro-3-methoxybenzyl)-5-[({trans-4-[(methylsulfonyl)amino]cyclohexyl}methoxy)methyl]-4-oxo-3,4-dihydrothieno[2,3-d]pyrimidine-2-carboxamide]: the Ki in assay [1] is 1000 nM; at Human recombinant MMP-12, above 10 µM; on Human recombinant MMP-13, 0.732 nM; on Human recombinant MMP-14, above 10 µM; on Human recombinant MMP-15 it was above 10 µM.
For `COc1cc(CNC(=O)c2nc3scc(COC[C@H]4CC[C@H](CO)CC4)c3c(=O)[nH]2)ccc1F` [Example 9, N-(4-Fluoro-3-methoxybenzyl)-5-(((trans-4-(hydroxymethyl)cyclohexyl)methoxy)methyl)-4-oxo-3,4-dihydrothieno[2,3-d]pyrimidine-2-carboxamide], the Ki in assay [1] was 1350 nM; at Human recombinant MMP-12, above 10 µM; at Human recombinant MMP-13, 0.88 nM; at Human recombinant MMP-14, above 10 µM; at Human recombinant MMP-15 it was above 10 µM.
As to `COc1cc(CNC(=O)c2nc3scc(COC[C@H]4CC[C@H](NC(C)=O)CC4)c3c(=O)[nH]2)ccc1F` [Example 19, 5-({[trans-4-(Acetylamino)cyclohexyl]methoxy}methyl)-N-(4-fluoro-3-methoxybenzyl)-4-oxo-3,4-dihydrothieno[2,3-d]pyrimidine-2-carboxamide], the Ki is 1220 nM in assay [1]; above 10 µM on Human recombinant MMP-12; 2.48 nM at Human recombinant MMP-13; above 10 µM at Human recombinant MMP-14; above 10 µM at Human recombinant MMP-15.
As to `COc1cccc(CNC(=O)c2nc3scc(COC[C@@H]4CO[C@@H](CO)CO4)c3c(=O)[nH]2)c1` (relative stereo) [Example 7, N-(3-Methoxybenzyl)-5-(((trans-5-(hydroxymethyl)-1,4-dioxan-2-yl)methoxy)methyl)-4-oxo-3,4-dihydrothieno[2,3-d]pyrimidine-2-carboxamide], the Ki in assay [1] is 1640 nM; on Human recombinant MMP-12, above 10 µM; at Human recombinant MMP-13 it was 11.4 nM; on Human recombinant MMP-14, above 10 µM; on Human recombinant MMP-15, above 10 µM.
